Source: patent publication US20240109865A1, “INDAZOLE COMPOUNDS AS KINASE INHIBITORS” (TYRA BIOSCIENCES, INC., priority 2020, published 2024)

Tests used:
[1] = target: FGFR2 (Homo sapiens (Human), UniProt P21802); test: Kinase assay, binding constants (Kd), kinase-tagged T7 phage, qPCR
In short: (§1)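 Competition binding: kinase-tagged T7 phage lysates mixed with immobilized biotinylated ligand on streptavidin beads plus compound (11-point 3-fold dilution series, 0.9% DMSO final). Bound kinase eluted with free ligand and quantified by qPCR. Kd from Hill equation fit, slope fixed at −1.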

[2] = target: FGFR4 (Homo sapiens (Human), UniProt P22455); test: as above
In short: as §1

[3] = target: FGFR1 (Homo sapiens (Human), UniProt P11362); test: as above
In short: as §1

[4] = target: FGFR3 (Homo sapiens (Human), UniProt P22607); test: as above
In short: as §1

[5] = target: FGFR3 (V555M) (Homo sapiens (Human), UniProt P22607, V555M); test: as above; details: V555M mutant
In short: as §1

[6] = target: FGFR3-BAIAP2L1 Ba/F3 cells (Homo sapiens, UniProt P22607); test: Ba/F3 cell viability assay (CellTiter-Glo 2.0), FGFR3-BAIAP2L1 Ba/F3; type: cell-based; details: for Ba/F3 FGFR1/FGFR3 Selectivity: FGFR3 > FGFR1 selectivity ratio in Ba/F3 FGFR fusion cell based assays; for IC50: read-out: Ba/F3 Cells FGFR3 (IC50 nM), FGFR3-BAIAP2L1 Ba/F3 cells, 48 hours, Cell Titer Glo 2.0
In short: (§2)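 IL3-independent Ba/F3 lines driven by FGFR1-BCR or FGFR3-BAIAP2L1 fusions, in RPMI1640/10% FBS. 9-dose 10-fold series from 30 μM, triplicate, 48 h at 37 °C; viability by CellTiter-Glo 2.0 ATP luminescence relative to DMSO control, IC50 from 4-parameter sigmoidal fit.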

[7] = target: FGFR1-BCR Ba/F3 cells (Homo sapiens, UniProt P11362); test: Ba/F3 cell viability assay (CellTiter-Glo 2.0), FGFR1-BCR Ba/F3; type: cell-based; details: read-out: Ba/F3 Cells FGFR1 (IC50 nM), 48 hours, Cell Titer Glo 2.0
In short: as §2

Chain of FGFR2 (P21802 22-821): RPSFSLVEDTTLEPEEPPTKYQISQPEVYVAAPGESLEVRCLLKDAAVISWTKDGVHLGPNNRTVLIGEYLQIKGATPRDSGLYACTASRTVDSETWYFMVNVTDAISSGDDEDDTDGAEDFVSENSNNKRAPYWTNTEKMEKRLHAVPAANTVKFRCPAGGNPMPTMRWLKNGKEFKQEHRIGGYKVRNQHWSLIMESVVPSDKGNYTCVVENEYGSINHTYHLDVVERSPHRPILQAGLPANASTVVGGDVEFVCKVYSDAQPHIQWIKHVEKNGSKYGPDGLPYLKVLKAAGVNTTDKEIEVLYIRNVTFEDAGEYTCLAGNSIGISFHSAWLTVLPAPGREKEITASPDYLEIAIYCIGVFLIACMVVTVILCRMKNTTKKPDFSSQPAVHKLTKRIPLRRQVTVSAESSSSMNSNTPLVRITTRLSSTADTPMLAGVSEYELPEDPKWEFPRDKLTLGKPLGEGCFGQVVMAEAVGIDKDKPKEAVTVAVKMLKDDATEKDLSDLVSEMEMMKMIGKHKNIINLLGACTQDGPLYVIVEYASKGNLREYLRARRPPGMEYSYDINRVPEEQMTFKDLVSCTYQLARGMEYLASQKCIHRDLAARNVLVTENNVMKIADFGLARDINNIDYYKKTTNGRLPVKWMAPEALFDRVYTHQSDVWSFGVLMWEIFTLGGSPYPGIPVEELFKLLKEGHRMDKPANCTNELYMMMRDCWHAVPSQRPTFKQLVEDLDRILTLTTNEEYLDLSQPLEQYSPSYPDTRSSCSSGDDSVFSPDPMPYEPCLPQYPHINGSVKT
Chain of FGFR1-BCR Ba/F3 cells (P11362 22-822 limits assumed, change not shown): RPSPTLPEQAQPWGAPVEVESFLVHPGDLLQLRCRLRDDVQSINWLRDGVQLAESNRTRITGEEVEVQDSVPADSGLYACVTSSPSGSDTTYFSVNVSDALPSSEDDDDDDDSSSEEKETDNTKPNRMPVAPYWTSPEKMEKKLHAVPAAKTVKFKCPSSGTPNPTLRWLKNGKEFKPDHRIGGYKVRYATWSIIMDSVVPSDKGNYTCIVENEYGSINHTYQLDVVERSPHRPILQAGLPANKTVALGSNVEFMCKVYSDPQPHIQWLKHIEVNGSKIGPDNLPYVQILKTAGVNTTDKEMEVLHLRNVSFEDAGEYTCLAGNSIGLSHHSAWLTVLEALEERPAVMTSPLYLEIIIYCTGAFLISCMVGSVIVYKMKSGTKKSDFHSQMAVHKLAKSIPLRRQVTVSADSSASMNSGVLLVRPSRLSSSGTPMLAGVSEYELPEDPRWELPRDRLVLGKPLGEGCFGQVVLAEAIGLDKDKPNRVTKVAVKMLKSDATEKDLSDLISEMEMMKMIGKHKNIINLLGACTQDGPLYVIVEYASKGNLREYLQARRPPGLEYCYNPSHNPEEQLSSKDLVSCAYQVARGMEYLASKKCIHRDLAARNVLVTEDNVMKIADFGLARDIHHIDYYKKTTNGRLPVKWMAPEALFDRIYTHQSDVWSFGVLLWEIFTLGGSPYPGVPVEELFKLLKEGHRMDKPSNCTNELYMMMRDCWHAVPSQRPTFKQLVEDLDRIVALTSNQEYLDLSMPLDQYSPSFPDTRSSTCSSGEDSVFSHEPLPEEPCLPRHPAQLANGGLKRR
Chain of FGFR1 (P11362 22-822): as the sequence (P11362 22-822 limits assumed, change not shown) above
Chain of FGFR4 (P22455 22-802): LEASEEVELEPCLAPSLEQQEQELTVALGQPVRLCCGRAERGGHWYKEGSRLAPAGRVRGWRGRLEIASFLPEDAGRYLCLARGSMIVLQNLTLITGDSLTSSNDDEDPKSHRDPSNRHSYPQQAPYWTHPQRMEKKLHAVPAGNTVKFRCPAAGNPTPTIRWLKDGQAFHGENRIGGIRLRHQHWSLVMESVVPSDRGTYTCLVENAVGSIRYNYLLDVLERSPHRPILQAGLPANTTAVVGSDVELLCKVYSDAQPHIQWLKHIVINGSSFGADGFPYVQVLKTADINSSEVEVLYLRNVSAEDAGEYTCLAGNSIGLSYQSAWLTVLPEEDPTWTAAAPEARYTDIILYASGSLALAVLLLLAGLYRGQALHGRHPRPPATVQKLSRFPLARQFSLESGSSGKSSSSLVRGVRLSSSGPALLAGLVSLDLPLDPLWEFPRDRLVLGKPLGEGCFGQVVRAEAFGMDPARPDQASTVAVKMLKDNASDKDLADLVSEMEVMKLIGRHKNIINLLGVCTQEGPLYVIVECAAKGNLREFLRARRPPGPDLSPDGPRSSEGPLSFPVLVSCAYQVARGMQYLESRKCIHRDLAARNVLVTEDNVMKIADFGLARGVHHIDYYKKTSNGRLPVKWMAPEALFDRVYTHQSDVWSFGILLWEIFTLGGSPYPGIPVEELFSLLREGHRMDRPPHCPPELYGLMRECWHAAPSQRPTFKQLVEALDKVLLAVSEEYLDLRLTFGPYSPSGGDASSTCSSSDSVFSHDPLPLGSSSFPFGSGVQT
Chain of FGFR3 (V555M) (P22607 23-806 V555M): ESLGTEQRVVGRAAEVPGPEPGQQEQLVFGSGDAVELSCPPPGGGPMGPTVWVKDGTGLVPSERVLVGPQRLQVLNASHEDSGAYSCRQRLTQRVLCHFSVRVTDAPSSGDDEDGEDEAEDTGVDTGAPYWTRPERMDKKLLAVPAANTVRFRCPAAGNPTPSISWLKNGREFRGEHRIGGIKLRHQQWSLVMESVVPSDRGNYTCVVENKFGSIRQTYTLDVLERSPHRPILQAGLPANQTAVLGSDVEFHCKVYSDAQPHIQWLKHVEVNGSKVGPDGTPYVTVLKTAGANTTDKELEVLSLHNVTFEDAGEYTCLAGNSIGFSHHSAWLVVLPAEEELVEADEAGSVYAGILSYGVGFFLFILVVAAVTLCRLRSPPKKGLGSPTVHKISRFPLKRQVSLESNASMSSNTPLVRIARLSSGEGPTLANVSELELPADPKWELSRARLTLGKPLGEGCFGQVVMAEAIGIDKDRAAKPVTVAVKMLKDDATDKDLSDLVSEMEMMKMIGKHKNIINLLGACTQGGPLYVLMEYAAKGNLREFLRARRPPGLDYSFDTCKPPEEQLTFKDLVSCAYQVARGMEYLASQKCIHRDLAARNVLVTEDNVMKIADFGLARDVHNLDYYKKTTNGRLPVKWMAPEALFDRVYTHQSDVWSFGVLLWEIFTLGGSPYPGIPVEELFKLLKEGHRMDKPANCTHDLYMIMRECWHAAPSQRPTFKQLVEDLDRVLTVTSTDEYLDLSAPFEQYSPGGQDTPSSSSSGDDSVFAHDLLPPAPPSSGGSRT
Chain of FGFR3-BAIAP2L1 Ba/F3 cells (P22607 23-806 limits assumed, change not shown): as the sequence (P22607 23-806 V555M) above, with M533V counted along it
Chain of FGFR3 (P22607 23-806): as the sequence (P22607 23-806 V555M) above, with M533V counted along it

SMILES: C[C@@H](Oc1ccc2[nH]nc(-c3cnn(C4CCS(=O)(=O)CC4)c3)c2c1)c1c(Cl)cncc1Cl [Example 114, 4-[4-[5-[(1R)-1-(3,5-dichloro-4-pyridyl)ethoxy]-1H-indazol-3-yl]pyrazol-1-yl]thiane 1,1-dioxide]
- Kd [1]: 1 to 20 nM
- Kd [2]: 20 to 100 nM
- Kd [3]: 1 to 20 nM
- Kd [4]: 1 to 20 nM
- Kd [5]: 1 to 20 nM
- Ba/F3 FGFR1/FGFR3 Selectivity [6]: 12
- IC50 [6]: 20 to 100 nM
- IC50 [7]: 100 to 300 nM

SMILES: Cc1ncc(Cl)c([C@@H](C)Oc2ccc3[nH]nc(-c4cnn(C5CCS(=O)(=O)CC5)c4)c3c2)c1Cl [Example 116, 4-[4-[5-[(1R)-1-(3,5-dichloro-2-methyl-4-pyridyl)ethoxy]-1H-indazol-3-yl]pyrazol-1-yl]thiane 1,1-dioxide]
- Kd [1]: 20 to 100 nM
- Kd [2]: 20 to 100 nM
- Kd [3]: 20 to 100 nM
- Kd [4]: 1 to 20 nM
- Kd [5]: 1 to 20 nM
- Ba/F3 FGFR1/FGFR3 Selectivity [6]: 12
- IC50 [6]: 1 to 20 nM
- IC50 [7]: 100 to 300 nM

SMILES: CCS(=O)(=O)N1CC2(CN(c3ncc(-c4n[nH]c5ccc(O[C@H](C)c6c(Cl)cncc6Cl)cc45)cn3)C2)C1 [Example 128, 5-[(1R)-1-(3,5-dichloro-4-pyridyl)ethoxy]-3-[2-(2-ethylsulfonyl-2,6-diazaspiro[3.3]heptan-6-yl)pyrimidin-5-yl]-1H-indazole]
- Kd [1]: 20 to 100 nM
- Kd [2]: 1 to 20 nM
- Kd [3]: 20 to 100 nM
- Kd [4]: 1 to 20 nM
- Kd [5]: 1 to 20 nM
- Ba/F3 FGFR1/FGFR3 Selectivity [6]: 8
- IC50 [6]: 20 to 100 nM
- IC50 [7]: > 300 nM

SMILES: C[C@@H](Oc1ccc2[nH]nc(-c3cnc(N4CC5(CCCS(=O)(=O)C5)C4)nc3)c2c1)c1c(Cl)cncc1Cl [Example 129, 2-[5-[5-[(1R)-1-(3,5-dichloro-4-pyridyl)ethoxy]-1H-indazol-3-yl]pyrimidin-2-yl]-6λ^6-thia-2-azaspiro[3.5]nonane 6,6-dioxide]
- Kd [1]: 20 to 100 nM
- Kd [2]: 1 to 20 nM
- Kd [3]: 20 to 100 nM
- Kd [4]: 1 to 20 nM
- Kd [5]: 1 to 20 nM
- Ba/F3 FGFR1/FGFR3 Selectivity [6]: 6
- IC50 [6]: 20 to 100 nM
- IC50 [7]: 100 to 300 nM

SMILES: CCOC(=O)N1CCC2(CC1)CN(c1ccc(-c3n[nH]c4ccc(O[C@H](C)c5c(Cl)cncc5Cl)cc34)cn1)C2 [Example 130, ethyl 2-[5-[5-[(1R)-1-(3,5-dichloro-4-pyridyl)ethoxy]-1H-indazol-3-yl]-2-pyridyl]-2,7-diazaspiro[3.5]nonane-7-carboxylate]
- Kd [1]: 20 to 100 nM
- Kd [2]: 1 to 20 nM
- Kd [3]: 20 to 100 nM
- Kd [4]: 1 to 20 nM
- Kd [5]: 1 to 20 nM
- Ba/F3 FGFR1/FGFR3 Selectivity [6]: 12
- IC50 [6]: 20 to 100 nM
- IC50 [7]: > 300 nM

SMILES: CCOC(=O)N1CCCC2(C1)CN(c1ncc(-c3n[nH]c4ccc(O[C@H](C)c5c(Cl)cncc5Cl)cc34)cn1)C2 [Example 131, ethyl 2-[5-[5-[(1R)-1-(3,5-dichloro-4-pyridyl)ethoxy]-1H-indazol-3-yl]pyrimidin-2-yl]-2,8-diazaspiro[3.5]nonane-8-carboxylate]
- Kd [1]: 100 to 300 nM
- Kd [2]: 1 to 20 nM
- Kd [3]: 100 to 300 nM
- Kd [4]: 1 to 20 nM
- Kd [5]: 1 to 20 nM
- Ba/F3 FGFR1/FGFR3 Selectivity [6]: 5
- IC50 [6]: 100 to 300 nM
- IC50 [7]: > 300 nM

SMILES: CC(C)OC(=O)N1CCCC2(C1)CN(c1ncc(-c3n[nH]c4ccc(O[C@H](C)c5c(Cl)cncc5Cl)cc34)cn1)C2 [Example 135, isopropyl 2-[5-[5-[(1R)-1-(3,5-dichloro-4-pyridyl)ethoxy]-1H-indazol-3-yl]pyrimidin-2-yl]-2,8-diazaspiro[3.5]nonane-8-carboxylate]
- Kd [1]: > 300 nM
- Kd [2]: 1 to 20 nM
- Kd [3]: > 300 nM
- Kd [4]: 20 to 100 nM
- Kd [5]: 1 to 20 nM
- Ba/F3 FGFR1/FGFR3 Selectivity [6]: 9
- IC50 [6]: 100 to 300 nM
- IC50 [7]: > 300 nM

SMILES: COC(=O)N1CCC2(CC1)CN(c1ncc(-c3n[nH]c4ccc(O[C@H](C)c5c(Cl)cncc5Cl)cc34)cn1)C2 [Example 136, methyl 2-[5-[5-[(1R)-1-(3,5-dichloro-4-pyridyl)ethoxy]-1H-indazol-3-yl]pyrimidin-2-yl]-2,7-diazaspiro[3.5]nonane-7-carboxylate]
- Kd [1]: 1 to 20 nM
- Kd [2]: 1 to 20 nM
- Kd [3]: 20 to 100 nM
- Kd [4]: 1 to 20 nM
- Kd [5]: 1 to 20 nM
- Ba/F3 FGFR1/FGFR3 Selectivity [6]: 6
- IC50 [6]: 20 to 100 nM
- IC50 [7]: > 300 nM

SMILES: C[C@@H](Oc1ccc2[nH]nc(-c3cnc(N4CC5(CCN(S(C)(=O)=O)CC5)C4)nc3)c2c1)c1c(Cl)cncc1Cl [Example 137, 5-[(1R)-1-(3,5-dichloro-4-pyridyl)ethoxy]-3-[2-(7-methylsulfonyl-2,7-diazaspiro[3.5]nonan-2-yl)pyrimidin-5-yl]-1H-indazole]
- Kd [1]: 20 to 100 nM
- Kd [2]: 1 to 20 nM
- Kd [3]: 20 to 100 nM
- Kd [4]: 1 to 20 nM
- Kd [5]: 1 to 20 nM
- Ba/F3 FGFR1/FGFR3 Selectivity [6]: 11
- IC50 [6]: 1 to 20 nM
- IC50 [7]: 100 to 300 nM

SMILES: COC(=O)N1CCCC2(C1)CN(c1ncc(-c3n[nH]c4ccc(O[C@H](C)c5c(Cl)cncc5Cl)cc34)cn1)C2 [Example 138, methyl 2-[5-[5-[(1R)-1-(3,5-dichloro-4-pyridyl)ethoxy]-1H-indazol-3-yl]pyrimidin-2-yl]-2,8-diazaspiro[3.5]nonane-8-carboxylate]
- Kd [1]: 20 to 100 nM
- Kd [2]: 1 to 20 nM
- Kd [3]: 20 to 100 nM
- Kd [4]: 1 to 20 nM
- Kd [5]: 1 to 20 nM
- Ba/F3 FGFR1/FGFR3 Selectivity [6]: 8
- IC50 [6]: 20 to 100 nM
- IC50 [7]: > 300 nM

SMILES: Cc1cncc(C)c1[C@H](C)Oc1ccc2[nH]nc(-c3ccc(N4CC5(C4)CN(S(C)(=O)=O)C5)nc3)c2c1 [Example 140, 5-[(1S)-1-(3,5-dimethyl-4-pyridyl)ethoxy]-3-[6-(2-methylsulfonyl-2,6-diazaspiro[3.3]heptan-6-yl)-3-pyridyl]-1H-indazole]
- Kd [1]: > 300 nM
- Kd [2]: > 300 nM
- Kd [3]: > 300 nM
- Kd [4]: 20 to 100 nM
- Kd [5]: 1 to 20 nM
- Ba/F3 FGFR1/FGFR3 Selectivity [6]: 19
- IC50 [6]: 100 to 300 nM
- IC50 [7]: > 300 nM

SMILES: Cc1cnnc(C)c1[C@@H](C)Oc1ccc2[nH]nc(-c3cnc(N4CC5(CCS(=O)(=O)C5)C4)nc3)c2c1 [Example 141, 2-[5-[5-[(1R)-1-(3,5-dimethylpyridazin-4-yl)ethoxy]-1H-indazol-3-yl]pyrimidin-2-yl]-6λ^6-thia-2-azaspiro[3.4]octane 6,6-dioxide]
- Kd [1]: 20 to 100 nM
- Kd [2]: 1 to 20 nM
- Kd [3]: 20 to 100 nM
- Kd [4]: 1 to 20 nM
- Kd [5]: 1 to 20 nM
- Ba/F3 FGFR1/FGFR3 Selectivity [6]: 3
- IC50 [6]: > 300 nM
- IC50 [7]: > 300 nM

SMILES: COC(=O)N1CC2(C1)CN(c1ncc(-c3n[nH]c4ccc(O[C@H](C)c5c(C)cnnc5C)cc34)cn1)C2 [Example 143, methyl 6-[5-[5-[(1R)-1-(3,5-dimethylpyridazin-4-yl)ethoxy]-1H-indazol-3-yl]pyrimidin-2-yl]-2,6-diazaspiro[3.3]heptane-2-carboxylate]
- Kd [1]: 20 to 100 nM
- Kd [2]: 1 to 20 nM
- Kd [3]: 100 to 300 nM
- Kd [4]: 1 to 20 nM
- Kd [5]: 1 to 20 nM
- Ba/F3 FGFR1/FGFR3 Selectivity [6]: 14
- IC50 [6]: 100 to 300 nM
- IC50 [7]: > 300 nM

SMILES: Cc1cnnc(C)c1[C@@H](C)Oc1ccc2[nH]nc(-c3ccc(N4CC5(CCS(=O)(=O)C5)C4)nc3)c2c1 [Example 144, 2-[5-[5-[(1R)-1-(3,5-dimethylpyridazin-4-yl)ethoxy]-1H-indazol-3-yl]-2-pyridyl]-6λ^6-thia-2-azaspiro[3.4]octane 6,6-dioxide]
- Kd [1]: 1 to 20 nM
- Kd [2]: 1 to 20 nM
- Kd [3]: 1 to 20 nM
- Kd [4]: 1 to 20 nM
- Kd [5]: 1 to 20 nM
- Ba/F3 FGFR1/FGFR3 Selectivity [6]: 33
- IC50 [6]: 20 to 100 nM
- IC50 [7]: > 300 nM

SMILES: Cc1cnnc(C)c1[C@H](C)Oc1ccc2[nH]nc(-c3ccc(N4CC5(CCS(=O)(=O)C5)C4)nc3)c2c1 [Example 145, 2-[5-[5-[(1S)-1-(3,5-dimethylpyridazin-4-yl)ethoxy]-1H-indazol-3-yl]-2-pyridyl]-6λ^6-thia-2-azaspiro[3.4]octane 6,6-dioxide]
- Kd [1]: 20 to 100 nM
- Kd [2]: 100 to 300 nM
- Kd [3]: > 300 nM
- Kd [4]: 20 to 100 nM
- Kd [5]: 1 to 20 nM
- Ba/F3 FGFR1/FGFR3 Selectivity [6]: 2
- IC50 [6]: > 300 nM
- IC50 [7]: > 300 nM

SMILES: CCOC(=O)N1CC2(C1)CN(c1ncc(-c3n[nH]c4ccc(O[C@H](C)c5c(C)cnnc5C)cc34)cn1)C2 [Example 146, ethyl 6-[5-[5-[(1R)-1-(3,5-dimethylpyridazin-4-yl)ethoxy]-1H-indazol-3-yl]pyrimidin-2-yl]-2,6-diazaspiro[3.3]heptane-2-carboxylate]
- Kd [1]: 20 to 100 nM
- Kd [2]: 1 to 20 nM
- Kd [3]: 100 to 300 nM
- Kd [4]: 1 to 20 nM
- Kd [5]: 1 to 20 nM
- Ba/F3 FGFR1/FGFR3 Selectivity [6]: 15
- IC50 [6]: 100 to 300 nM
- IC50 [7]: > 300 nM

SMILES: Cc1cnnc(C)c1[C@@H](C)Oc1ccc2[nH]nc(-c3ccc(N4CC5(C4)CN(S(C)(=O)=O)C5)nc3)c2c1 [Example 148, 5-[(1R)-1-(3,5-dimethylpyridazin-4-yl)ethoxy]-3-[6-(2-methylsulfonyl-2,6-diazaspiro[3.3]heptan-6-yl)-3-pyridyl]-1H-indazole]
- Kd [1]: 1 to 20 nM
- Kd [2]: 1 to 20 nM
- Kd [3]: 1 to 20 nM
- Kd [4]: 1 to 20 nM
- Kd [5]: 1 to 20 nM
- Ba/F3 FGFR1/FGFR3 Selectivity [6]: 16
- IC50 [6]: 20 to 100 nM
- IC50 [7]: > 300 nM
